Results from ChEMBL document CHEMBL3880411, “Multikinase inhibitors for use in the treatment of cancer” (2009).
pIC50: −log10 of the molar value. Activity calls are given as the source filed them. The calls are words filed in the database; no cut-off is given here.

Assays:
[1] = target: Receptor-type tyrosine-protein kinase FLT3 (Homo sapiens) (UniProt P36888); test: Inhibition of human Flt3 assessed as remaining activity at 1 uM after 40 mins in presence of [gamma33P-ATP] by scintillation counting
Receptor-type tyrosine-protein kinase FLT3 (Homo sapiens), sequence (P36888 whole entry): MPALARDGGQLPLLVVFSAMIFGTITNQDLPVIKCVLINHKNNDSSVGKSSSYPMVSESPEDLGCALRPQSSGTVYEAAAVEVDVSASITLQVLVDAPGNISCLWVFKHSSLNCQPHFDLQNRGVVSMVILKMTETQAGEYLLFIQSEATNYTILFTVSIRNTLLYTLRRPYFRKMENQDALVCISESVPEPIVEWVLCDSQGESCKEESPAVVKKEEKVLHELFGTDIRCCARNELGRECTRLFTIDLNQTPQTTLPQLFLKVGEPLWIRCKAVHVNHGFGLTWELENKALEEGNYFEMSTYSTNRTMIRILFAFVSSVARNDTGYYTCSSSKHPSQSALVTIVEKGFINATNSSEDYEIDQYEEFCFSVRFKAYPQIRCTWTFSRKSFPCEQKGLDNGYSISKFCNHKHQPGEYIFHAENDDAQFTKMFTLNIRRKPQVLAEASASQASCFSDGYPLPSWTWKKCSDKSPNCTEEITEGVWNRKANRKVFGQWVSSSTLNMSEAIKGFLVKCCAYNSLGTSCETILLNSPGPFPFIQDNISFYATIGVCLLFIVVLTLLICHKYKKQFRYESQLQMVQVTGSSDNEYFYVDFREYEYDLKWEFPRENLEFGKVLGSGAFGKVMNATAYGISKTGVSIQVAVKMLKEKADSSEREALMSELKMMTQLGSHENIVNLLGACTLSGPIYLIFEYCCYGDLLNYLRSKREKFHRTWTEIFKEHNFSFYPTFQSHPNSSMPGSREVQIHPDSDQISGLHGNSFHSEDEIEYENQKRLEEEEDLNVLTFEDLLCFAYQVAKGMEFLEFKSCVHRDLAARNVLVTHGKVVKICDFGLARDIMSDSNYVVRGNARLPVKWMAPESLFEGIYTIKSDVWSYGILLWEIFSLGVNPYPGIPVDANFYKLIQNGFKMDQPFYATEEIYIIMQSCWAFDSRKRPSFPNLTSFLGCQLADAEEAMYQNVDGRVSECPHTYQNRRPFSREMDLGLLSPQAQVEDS

[2] = target: Nuclear factor NF-kappa-B complex (Homo sapiens) (UniProt Q00653+P19838+Q04206); test: Inhibition of NFkappaB (unknown origin); format: protein-complex assay
Nuclear factor NF-kappa-B complex (Homo sapiens), sequence (P19838 whole entry, looked up): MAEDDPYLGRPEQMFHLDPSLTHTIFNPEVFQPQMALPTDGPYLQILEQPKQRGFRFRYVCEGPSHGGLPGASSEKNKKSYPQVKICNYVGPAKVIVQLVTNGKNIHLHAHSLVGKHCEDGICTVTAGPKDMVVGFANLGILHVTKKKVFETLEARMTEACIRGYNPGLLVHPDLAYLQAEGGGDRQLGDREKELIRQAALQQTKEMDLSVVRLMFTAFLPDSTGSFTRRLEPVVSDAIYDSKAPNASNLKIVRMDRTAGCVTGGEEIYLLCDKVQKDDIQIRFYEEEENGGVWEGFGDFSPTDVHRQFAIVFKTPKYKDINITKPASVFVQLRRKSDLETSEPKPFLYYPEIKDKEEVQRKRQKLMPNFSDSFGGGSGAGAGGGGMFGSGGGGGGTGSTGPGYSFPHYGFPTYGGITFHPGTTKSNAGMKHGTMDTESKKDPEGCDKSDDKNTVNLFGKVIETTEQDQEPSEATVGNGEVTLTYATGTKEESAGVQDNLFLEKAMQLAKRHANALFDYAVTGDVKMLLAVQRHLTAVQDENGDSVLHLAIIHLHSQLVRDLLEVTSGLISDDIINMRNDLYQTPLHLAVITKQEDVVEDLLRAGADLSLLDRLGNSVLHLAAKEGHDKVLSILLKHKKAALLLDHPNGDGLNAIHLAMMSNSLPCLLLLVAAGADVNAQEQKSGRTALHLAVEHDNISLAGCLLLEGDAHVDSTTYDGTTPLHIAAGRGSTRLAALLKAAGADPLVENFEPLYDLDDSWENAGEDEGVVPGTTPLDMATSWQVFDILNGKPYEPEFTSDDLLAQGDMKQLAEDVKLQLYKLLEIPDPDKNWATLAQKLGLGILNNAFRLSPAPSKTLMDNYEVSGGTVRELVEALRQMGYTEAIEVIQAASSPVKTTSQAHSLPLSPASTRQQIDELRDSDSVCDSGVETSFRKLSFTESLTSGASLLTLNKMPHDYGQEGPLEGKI
Nuclear factor NF-kappa-B complex (Homo sapiens), sequence (Q00653 whole entry, looked up): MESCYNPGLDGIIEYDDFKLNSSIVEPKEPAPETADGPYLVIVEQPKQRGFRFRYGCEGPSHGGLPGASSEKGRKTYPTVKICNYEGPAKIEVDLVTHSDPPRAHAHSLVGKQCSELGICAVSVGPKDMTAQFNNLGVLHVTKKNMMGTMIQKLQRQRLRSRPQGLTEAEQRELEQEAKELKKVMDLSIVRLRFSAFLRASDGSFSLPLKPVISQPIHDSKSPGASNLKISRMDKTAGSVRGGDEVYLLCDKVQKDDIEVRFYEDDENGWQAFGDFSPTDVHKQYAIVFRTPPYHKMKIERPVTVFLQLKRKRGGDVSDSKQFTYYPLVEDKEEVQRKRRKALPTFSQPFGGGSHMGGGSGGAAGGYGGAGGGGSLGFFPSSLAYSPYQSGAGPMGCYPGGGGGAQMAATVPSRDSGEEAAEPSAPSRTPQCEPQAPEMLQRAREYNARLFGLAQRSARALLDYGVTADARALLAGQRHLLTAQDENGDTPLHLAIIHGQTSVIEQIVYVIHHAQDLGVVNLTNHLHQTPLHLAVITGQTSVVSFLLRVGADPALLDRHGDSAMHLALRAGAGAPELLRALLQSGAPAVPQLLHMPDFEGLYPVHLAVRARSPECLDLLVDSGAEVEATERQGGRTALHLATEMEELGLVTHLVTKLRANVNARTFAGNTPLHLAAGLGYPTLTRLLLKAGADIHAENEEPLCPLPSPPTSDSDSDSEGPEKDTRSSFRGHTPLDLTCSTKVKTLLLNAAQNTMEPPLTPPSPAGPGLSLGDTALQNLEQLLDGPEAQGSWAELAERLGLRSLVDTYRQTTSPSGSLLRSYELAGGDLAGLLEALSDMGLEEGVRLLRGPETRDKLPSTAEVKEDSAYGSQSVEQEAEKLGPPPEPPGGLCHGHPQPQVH
Nuclear factor NF-kappa-B complex (Homo sapiens), sequence (Q04206 whole entry, looked up): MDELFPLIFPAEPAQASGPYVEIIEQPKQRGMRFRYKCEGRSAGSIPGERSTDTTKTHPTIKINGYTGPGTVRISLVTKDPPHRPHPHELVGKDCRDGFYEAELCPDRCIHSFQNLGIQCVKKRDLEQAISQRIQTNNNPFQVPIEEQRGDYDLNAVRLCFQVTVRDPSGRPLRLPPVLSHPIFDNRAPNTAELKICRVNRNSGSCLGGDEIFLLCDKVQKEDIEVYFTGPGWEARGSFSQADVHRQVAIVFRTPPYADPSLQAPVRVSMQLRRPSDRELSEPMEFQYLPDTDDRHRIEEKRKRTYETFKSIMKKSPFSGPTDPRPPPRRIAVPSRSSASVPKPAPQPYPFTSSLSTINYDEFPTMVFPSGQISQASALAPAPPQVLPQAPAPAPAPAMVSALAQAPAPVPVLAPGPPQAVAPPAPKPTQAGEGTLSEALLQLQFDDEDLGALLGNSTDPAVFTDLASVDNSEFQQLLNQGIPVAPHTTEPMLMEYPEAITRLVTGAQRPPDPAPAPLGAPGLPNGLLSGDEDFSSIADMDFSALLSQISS

[3] = target: Tyrosine-protein kinase Lyn (Homo sapiens) (UniProt P07948); test: Inhibition of human Lyn assessed as remaining activity at 1 uM after 40 mins in presence of [gamma33P-ATP] by scintillation counting
Tyrosine-protein kinase Lyn (Homo sapiens), sequence (P07948 2-512 limits assumed): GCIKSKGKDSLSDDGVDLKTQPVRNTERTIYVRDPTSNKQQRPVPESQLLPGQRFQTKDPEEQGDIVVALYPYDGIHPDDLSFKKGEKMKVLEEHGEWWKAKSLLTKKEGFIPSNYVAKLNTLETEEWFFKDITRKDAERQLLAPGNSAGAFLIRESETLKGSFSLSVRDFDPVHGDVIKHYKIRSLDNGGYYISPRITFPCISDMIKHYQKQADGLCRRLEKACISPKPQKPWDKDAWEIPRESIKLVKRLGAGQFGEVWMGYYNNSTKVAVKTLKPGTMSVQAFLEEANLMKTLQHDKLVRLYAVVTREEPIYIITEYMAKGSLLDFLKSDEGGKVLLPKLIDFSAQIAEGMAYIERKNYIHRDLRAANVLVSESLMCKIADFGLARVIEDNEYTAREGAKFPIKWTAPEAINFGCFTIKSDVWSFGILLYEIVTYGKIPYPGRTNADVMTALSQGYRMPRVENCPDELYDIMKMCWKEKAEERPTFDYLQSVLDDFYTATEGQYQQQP

[4] = Cytotoxicity against human MCF7 cells assessed as reduction in cell viability after 96 hrs by CellTiter-Glo luminescence assay or methylene blue assay; format: functional, cell-based; conditions: MCF7, 96 h
[5] = target: Tyrosine-protein kinase ABL1 (Homo sapiens) (UniProt P00519); test: Inhibition of human Abl assessed as remaining activity at 1 uM after 40 mins in presence of [gamma33P-ATP] by scintillation counting
Tyrosine-protein kinase ABL1 (Homo sapiens), sequence (P00519 whole entry): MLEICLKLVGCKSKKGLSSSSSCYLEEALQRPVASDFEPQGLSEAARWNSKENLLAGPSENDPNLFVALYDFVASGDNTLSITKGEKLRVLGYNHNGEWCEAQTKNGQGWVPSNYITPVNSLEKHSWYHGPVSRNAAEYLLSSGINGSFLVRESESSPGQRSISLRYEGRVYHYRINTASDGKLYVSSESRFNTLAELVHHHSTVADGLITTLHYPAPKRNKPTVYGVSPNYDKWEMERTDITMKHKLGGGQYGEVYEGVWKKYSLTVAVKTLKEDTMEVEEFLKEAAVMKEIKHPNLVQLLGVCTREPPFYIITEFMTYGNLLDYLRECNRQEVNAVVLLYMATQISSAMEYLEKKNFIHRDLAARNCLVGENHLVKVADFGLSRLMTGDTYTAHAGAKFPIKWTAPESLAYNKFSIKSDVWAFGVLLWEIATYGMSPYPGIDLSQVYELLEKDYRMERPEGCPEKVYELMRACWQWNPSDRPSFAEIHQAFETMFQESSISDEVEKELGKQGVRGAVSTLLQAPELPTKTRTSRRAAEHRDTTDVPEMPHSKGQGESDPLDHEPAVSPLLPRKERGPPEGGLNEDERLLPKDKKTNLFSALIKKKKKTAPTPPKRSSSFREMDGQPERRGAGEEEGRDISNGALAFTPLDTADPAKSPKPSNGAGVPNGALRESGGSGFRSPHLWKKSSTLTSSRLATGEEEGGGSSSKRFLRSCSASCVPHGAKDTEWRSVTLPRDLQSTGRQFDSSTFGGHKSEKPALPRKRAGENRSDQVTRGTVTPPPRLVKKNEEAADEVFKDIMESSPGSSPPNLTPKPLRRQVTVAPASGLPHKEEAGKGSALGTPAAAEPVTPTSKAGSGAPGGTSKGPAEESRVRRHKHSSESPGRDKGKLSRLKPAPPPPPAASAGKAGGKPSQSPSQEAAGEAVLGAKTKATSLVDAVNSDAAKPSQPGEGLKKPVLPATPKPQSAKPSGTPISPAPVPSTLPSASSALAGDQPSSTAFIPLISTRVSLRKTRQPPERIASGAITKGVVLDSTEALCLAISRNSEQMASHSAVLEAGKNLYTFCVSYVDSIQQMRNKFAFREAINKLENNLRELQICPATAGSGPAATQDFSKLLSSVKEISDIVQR

[6] = Cytotoxicity against human MDA-MB-231 cells expressing K-ras G13D mutant assessed as reduction in cell viability after 96 hrs by CellTiter-Glo luminescence assay or methylene blue assay; format: functional, cell-based; conditions: MDA-MB-231, 96 h
[7] = Cytotoxicity against human HT-29 cells expressing B-RAF V600E mutant assessed as reduction in cell viability after 96 hrs by CellTiter-Glo luminescence assay or methylene blue assay; format: functional, cell-based; conditions: HT-29, 96 h
[8] = Cytotoxicity against human MES-SA/Dx5-Rx1 cells assessed as reduction in cell viability after 96 hrs by CellTiter-Glo luminescence assay or methylene blue assay; format: functional, cell-based
[9] = system: Receptor-type tyrosine-protein kinase FLT3 (Homo sapiens), P36888 [UNDEFINED MUTATION]; test: Inhibition of Flt-3 activation mutant phosphorylation in human MV4-11 cells after 24 hrs by Western blot analysis; format: cell-based
Receptor-type tyrosine-protein kinase FLT3 (Homo sapiens), P36888 [UNDEFINED MUTATION], sequence (P36888 whole entry, looked up, stated change not applied): as the sequence (P36888 whole entry) above

[10] = Antiproliferative activity against human RL cells after 96 hrs by MTT assay; format: functional, cell-based

With `CCNc1cc(O)c2c(c1)/C=C/C[C@H](O)[C@H](O)C(=O)/C=C\[C@@H](C)[C@H](C)OC2=O` [E-6201] the Activity [1] was 6%, the inhibition [2] was “Active” and the Activity [3] was 2%. For the same compound, the pIC50 [4] was < 5.00, the Activity [5] was 15% and the pIC50 [6] was 6.81. The pIC50 [7] was 7.08, the pIC50 [8] was 5.80 and the inhibition [9] was “Dose-dependent effect”. The pIC50 [10] was 5.78.
